The values that follow come from patent US20070253957A1, “Substituted N-Aryl-1H-Pyrazolo[3,4-B]Quinolin-4-Amines and Analogs as Activators of Caspases and Inducers of Apoptosis” (Cytovia, Inc., priority 2004, published 2007).

Like-named read-outs stand apart in the source and are kept apart here.

Experiment [1] has as its system T-47D. Put plainly: Inhibition of cell proliferation (GI50), CellTiter 96 AQUEOUS One Solution, T-47D cells. Format: cell-based, Human. The following applies: 48 h incubation, dose for 50% inhibition of cell proliferation. The protocol:
(§1) T-47D and MX1 cells were grown and harvested as in Example 49. An aliquot of 90 μL of cells (2.2×10^4 cells/mL) was added to a well of a 96-well micrQtiter plate containing 10 μl of a 10% DMSO in RPMI-1640 media solution containing […] to 100 μM of 1,3-dimethyl-N-(4-methoxyphenyl)-1H-pyrazolo[3,4-b]quinolin-4-amine (0.1 nM to 10 μM final) or other test compound. An aliquot of 90 μL of cells was added to a well of a 96-well microtiter plate containing 10 μL of a 10% DMSO in RPMI-1640 media solution without compound as the control sample for maximal cell proliferation (AMax). The samples were mixed by agitation and then incubated at 37° C. for 48 h in a 5% CO2-95% humidity incubator. After incubation, the samples were removed from the incubator and 20 μL of CellTiter 96 AQUEOUS One Solution Cell Proliferation™ reagent (Promega) was added. The samples were mixed by agitation and incubated at 37° C. for 2-4 h in a 5% CO2-95% humidity incubator. Using an absorbance plate reader (Model 1420 Wallac Instruments), an initial reading (T=0) was made about 1-2 min after addition of the solution, employing absorbance at 490 nm. This determines the possible background absorbance of the test compounds. No absorbance for 1,3-dimethyl-N-(4-methoxyphenyl)-1H-pyrazolo[3,4-b]quinolin-4-amine was found at 490 nm. After the 2-4 h incubation, the samples were read for absorbance as above (ATest).
(§2) Baseline for GI50 (dose for 50% inhibition of cell proliferation) of initial cell numbers were determined by adding an aliquot of 90 μL of cells or 90 μL of media, respectively, to wells of a 96-well microtiter plate containing 10 μL of a 10% DMSO in RPMI-1640 media solution. The samples were mixed by agitation and then incubated at 37° C. for 0.5 h in a 5% CO2-95% humidity incubator. After incubation, the samples were removed from the incubator and 20 μL of CellTiter 96 AQUEOUS One Solution Cell Proliferation™ reagent (Promega) was added. The samples were mixed by agitation and incubated at 37° C. for 2-4 h in a 5% CO2-95% humidity incubator. Absorbance was read as above, (Astart) defining absorbance for initial cell number used as baseline in GI50 determinations.
(§3) GI50 (dose for 50% inhibition of cell proliferation) is the concentration where [(ATest−Astart)/(AMax−AStart)]=0.5.

The subject of experiment [2] is T-47D. Put plainly: Caspase cascade activation assay (N-(Ac-DEVD)-N'-ethoxycarbonyl-R110 fluorogenic substrate) in T-47D cells. The following applies: 24 h incubation; for Caspase Activity Ratio: ratio of net RFU (T=3 h) to that of control samples, 0.16 to 10 μM final; for EC50: sigmoidal dose-response calculation, read-out: Caspase Potency EC50. The format is cell-based, Human. The protocol: Human breast cancer cell lines T-47D was grown according to media component mixtures designated by American Type Culture Collection+10% FCS (mvitrogen Corporation), in a 5% CO2-95% humidity incubator at 37° C. T-47D and ZR-75-1 cells were maintained at a cell density between 30 and 80% confluency and for HL-60 at a cell density of 0.1 to 0.6×10^6 cells/mL. Cells were harvested at 600×g and resuspended at 0.65×10^6 cells/mL into appropriate media+10% FCS. An aliquot of 45 μL of cells was added to a well of a 96-well microtiter plate containing 5 μL of a 10% DMSO in RPMI-1640 media solution containing 1.6 to 100 μM of 1,3-dimethyl-N-(4-methoxyphenyl)-1H-pyrazolo[3,4-b]quinolin-4-amine or other test compound (0.16 to 10 μM final). An aliquot of 45 μL of cells was added to a well of a 96-well microtiter plate containing 5 μL of a 10% DMSO in RPMI-1640 media solution without test compound as the control sample. The samples were mixed by agitation and then incubated at 37° C. for 24 h in a 5% CO2-95% humidity incubator. After incubation, the samples were removed from the incubator and 50 μL of a solution containing 20 μM of N-(Ac-DEVD)-N′-ethoxycarbonyl-R110 fluorogenic substrate (SEQ ID NO:1) (Cytovia, Inc.; U.S. Pat. No. 6,335,429), 20% sucrose (Sigma), 20 mM DTT (Sigma), 200 mM NaCl (Sigma), 40 mM Na PIPES buffer pH 7.2 (Sigma), and 500 μg/mL lysolecithin (Calbiochem) was added. The samples were mixed by agitation and incubated at room temperature. Using a fluorescent plate reader (Model 1420 Wallac Instruments), an initial reading (T=0) was made about 1-2 min after addition of the substrate solution, employing excitation at 485 nm and emission at 530 nm, to determine the background fluorescence of the control sample. After about 3 h of incubation, the samples were read for fluorescence as above (T=3 h).
The Relative Fluorescence Unit values (RFU) were used to calculate the sample readings as follows: RFU(T=3h)−Control RFU(T=0)=Net RFU(T=3h)
The activity of caspase cascade activation was determined by the ratio of the net RFU value for 1,3-dimethyl-N-(4-methoxyphenyl)-1H-pyrazolo[3,4-b]quinolin-4-amine to that of control samples. The EC50 (nM) was determined by a sigmoidal dose-response calculation (Prism 2.0, GraphPad Software Inc.).

Experiment [3] relates to MX1. Put plainly: Inhibition of cell proliferation (GI50), CellTiter 96 AQUEOUS One Solution, MX1 cells. The format is cell-based. The conditions noted are these: 48 h incubation, dose for 50% inhibition of cell proliferation. The protocol: as §1, §2, §3

Regarding `CCC(=O)c1ccc(Nc2c3ccccc3nc3c2c(C)nn3CC)cc1` [Example 42, 1-Ethyl-3-methyl-N-(4-propionylphenyl)-1H-pyrazolo[3,4-b]quinolin-4-amine], the GI50 in experiment [1] (Homo sapiens, T47D) turned out to be 0.1 µM; in experiment [3] (Homo sapiens) it was 0.1 µM. Further, the “Caspase Activity Ratio” value in experiment [2] stood at 6.7. Further, in experiment [2] (Homo sapiens, T47D), the EC50 was 0.173 µM.
Take `CCC(=O)c1ccc(Nc2c3cccc([N+](=O)[O-])c3nc3c2c(C)nn3C)cc1` [Example 37, 1,3-Dimethyl-8-nitro-N-(4-propionylphenyl)-1H-pyrazolo[3,4-b]quinolin-4-amine]: the GI50 in experiment [1] (Homo sapiens, T47D) worked out at 0.546 µM; in experiment [3] (Homo sapiens), 0.9 µM. Further, the “Caspase Activity Ratio” value in experiment [2] came to 4.2. The concentration for a half-maximal effect (EC50) in experiment [2] (Homo sapiens, T47D) is 0.435 µM.
With `COC(=O)c1ccc(N(C)c2c3ccccc3nc3c2c(C)nn3C)cc1` [Example 30, 1,3-Dimethyl-N-methyl-N-(4-methoxycarbonylphenyl)-1H-pyrazolo[3,4-b]quinolin-4-amine], the concentration for 50% growth inhibition (GI50) in experiment [1] (Homo sapiens, T47D) was 4.57 µM; in experiment [3] (Homo sapiens), 4 µM. Besides, the “Caspase Activity Ratio” value in experiment [2] worked out at 6.6. In addition, the EC50 in experiment [2] (Homo sapiens, T47D) is 2.85 µM.
Take `CSc1ccc(Nc2c3ccccc3nc3c2c(C)nn3C)cc1` [Example 33, 1,3-Dimethyl-N-(4-methylthiophenyl)-1H-pyrazolo[3,4-b]quinolin-4-amine]: the concentration for 50% growth inhibition (GI50) in experiment [1] (Homo sapiens, T47D) was determined as 0.5 µM; in experiment [3] (Homo sapiens) it was 0.5 µM. The “Caspase Activity Ratio” value in experiment [2] is recorded as 3.6. The EC50 in experiment [2] (Homo sapiens, T47D) is 0.667 µM.
Regarding `CCC(=O)c1ccc(Nc2c3cccc(N)c3nc3c2c(C)nn3C)cc1` [Example 38, 8-Amino-1,3-dimethyl-N-(4-propionylphenyl)-1H-pyrazolo[3,4-b]quinolin-4-amine], the GI50 in experiment [1] (Homo sapiens, T47D) turned out to be 0.803 µM; in experiment [3] (Homo sapiens), 2.21 µM. The “Caspase Activity Ratio” value in experiment [2] stood at 5.1. For the same compound, the EC50 in experiment [2] (Homo sapiens, T47D) is 0.706 µM.
As to `COc1ccc(Nc2c3ccccc3nc3c2c(C)nn3C)cc1` [Compound A, 1,3-Dimethyl-N-(4-methoxyphenyl)-1H-pyrazolo[3,4-b]quinolin-4-amine], the GI50 amounted to 0.809 µM in experiment [1] (Homo sapiens, T47D) and 0.8 µM in experiment [3] (Homo sapiens). Further, the “Caspase Activity Ratio” value in experiment [2] turned out to be 3.8. The 50% effective concentration (EC50) in experiment [2] (Homo sapiens, T47D) was 0.793 µM.
With `COc1ccc(N(C)c2c3ccccc3nc3c2c(C)nn3C)cc1` [Example 31, 1,3-Dimethyl-N-methyl-N-(4-methoxyphenyl)-1H-pyrazolo[3,4-b]quinolin-4-amine], the 50% growth inhibitory concentration (GI50) in experiment [1] (Homo sapiens, T47D) was 6.1 µM; in experiment [3] (Homo sapiens) it was over 10 µM. The “Caspase Activity Ratio” value in experiment [2] is 9.7. Also, in experiment [2] (Homo sapiens, T47D), the EC50 was 4.1 µM.
Consider `CC(=O)c1ccc(Nc2c3c(nc4ccccc24)CCC3)cc1` [Example 11, N-(4-Acetylphenyl)-2,3-dihydro-1H-cyclopenta[b]quinolin-9-amine], for which the GI50 in experiment [1] (Homo sapiens, T47D) came out at 0.3 µM; in experiment [3] (Homo sapiens), 0.3 µM. In addition, the “Caspase Activity Ratio” value in experiment [2] was determined as 9.4. Moreover, in experiment [2] (Homo sapiens, T47D), the EC50 is 0.444 µM.
On to `COC(=O)c1ccc(Nc2c3ccccc3nc3c2c(C)nn3C)cc1` [Example 4, 1,3-Dimethyl-N-(4-(methoxycarbonyl)phenyl)-1H-pyrazolo[3,4-b]quinolin-4-amine], for which the GI50 in experiment [1] (Homo sapiens, T47D) is 0.519 µM; in experiment [3] (Homo sapiens), 0.5 µM. Also, in experiment [2], the “Caspase Activity Ratio” value is recorded as 8.6. In addition, the EC50 in experiment [2] (Homo sapiens, T47D) was 0.333 µM.
For `CCC(O)c1ccc(Nc2c3ccccc3nc3c2c(C)nn3C)cc1` (stereo not shown) [Example 43, N-(4-(1-Hydroxypropyl)-phenyl)-1,3-dimethyl-1H-pyrazolo[3,4-b]quinolin-4-amine], the 50% growth inhibitory concentration (GI50) in experiment [1] (Homo sapiens, T47D) came to 0.14 µM; in experiment [3] (Homo sapiens), 1.67 µM. Further, the “Caspase Activity Ratio” value in experiment [2] was determined as 3.7. Besides, the EC50 in experiment [2] (Homo sapiens, T47D) is 0.183 µM.
For `CCC(=O)c1ccc(Nc2c3ccccc3nc3c2c(C)nn3C)cc1` [Example 23, 1,3-Dimethyl-N-(4-propionylphenyl)-1H-pyrazolo[3,4-b]quinolin-4-amine], in that order: 0.03 µM, 0.03 µM, 4.2 and 0.043 µM.
In turn, `CC(=O)c1ccc(Nc2c3cccc(C)c3nc3c2c(C)nn3C)cc1` [Example 29, N-(4-Acetylphenyl)-1,3,8-trimethyl-1H-pyrazolo[3,4-b]quinolin-4-amme] registered a GI50 in experiment [1] of 0.399 µM. In addition, in experiment [2], the “Caspase Activity Ratio” value came out at 4.2 and the EC50 was 0.663 µM. In experiment [3], this compound showed a GI50 of 0.6 µM.
Take `CC(=O)c1ccc(Nc2c3cc(C)ccc3nc3c2c(C)nn3C)cc1` [Example 26, N-(4-Acetylphenyl)-1,3,6-trimethyl-1H-pyrazolo[3,4-b]quinolin-4-amine]: the GI50 in experiment [1] (Homo sapiens, T47D) is over 10 µM; in experiment [3] (Homo sapiens), over 10 µM. In experiment [2], the “Caspase Activity Ratio” value is 1.1. In addition, in experiment [2] (Homo sapiens, T47D), the EC50 was over 10 µM.
